Test results from patent US9359367B2, “Tetrahydroquinazolinone derivatives as PARP inhibitors” (Lupin Limited, priority 2012, dated 2016).

What follows are compounds tested against T1, PARP1 (Homo sapiens, UniProt P09874) (assay: PARP1 Biochemical Assay (BPS Bioscience kit, chemiluminescence)). Details: histone-coated plate, biotinilated NAD+, 25° C. for 60 min, luminescence, read-out: PARP 1 inhibition IC50.
T1 construct: purchased BPS Bioscience
Description: The assay was performed using BPS Bioscience kit. The 96-well strip plate was coated with 50 μl of histone mixture and incubated at 4° C. overnight. Next day the wells were blocked by adding 100 μl of blocking buffer. The plate was washed and 25 μl of appropriate concentration of PARP1 (25-75 ng/well) was added in all the Test and Positive control wells. In Negative control wells enzyme was replaced with 25 μl of water. To it 5 μl each of 10×PARP assay buffer and activated DNA was added in all the wells (Test, Positive and Negative control wells). 10× concentration of test compounds were prepared and 5 μl test compounds were added respective wells. Reaction volume was made up to 45 μl by adding water to all the wells. Finally, 5 μl of 10×PARP assay mixture containing biotinilated NAD^+ was added in each well and the plate was incubated at ambient temperature (25° C.) for 60 min. After washing the plate 50 μl of Streptavidin-HRP was added in each well and incubated the plate at RT for 30 min. The plate was washed and the luminescence was read in PHERAStar plate reader after adding 100 μl of chemiluminescent substrate.
PARP inhibition was calculated using the following formula: % PARP inhibition=100−[(RLU test compound treated sample−RLU negative control)/(RLU Positive control−RLU negative control)×100]
IC50 values were calculated by plotting % inhibition against the respective concentrations of test compounds using GraphPad Prism 5.

T1 sequence (P09874 whole entry): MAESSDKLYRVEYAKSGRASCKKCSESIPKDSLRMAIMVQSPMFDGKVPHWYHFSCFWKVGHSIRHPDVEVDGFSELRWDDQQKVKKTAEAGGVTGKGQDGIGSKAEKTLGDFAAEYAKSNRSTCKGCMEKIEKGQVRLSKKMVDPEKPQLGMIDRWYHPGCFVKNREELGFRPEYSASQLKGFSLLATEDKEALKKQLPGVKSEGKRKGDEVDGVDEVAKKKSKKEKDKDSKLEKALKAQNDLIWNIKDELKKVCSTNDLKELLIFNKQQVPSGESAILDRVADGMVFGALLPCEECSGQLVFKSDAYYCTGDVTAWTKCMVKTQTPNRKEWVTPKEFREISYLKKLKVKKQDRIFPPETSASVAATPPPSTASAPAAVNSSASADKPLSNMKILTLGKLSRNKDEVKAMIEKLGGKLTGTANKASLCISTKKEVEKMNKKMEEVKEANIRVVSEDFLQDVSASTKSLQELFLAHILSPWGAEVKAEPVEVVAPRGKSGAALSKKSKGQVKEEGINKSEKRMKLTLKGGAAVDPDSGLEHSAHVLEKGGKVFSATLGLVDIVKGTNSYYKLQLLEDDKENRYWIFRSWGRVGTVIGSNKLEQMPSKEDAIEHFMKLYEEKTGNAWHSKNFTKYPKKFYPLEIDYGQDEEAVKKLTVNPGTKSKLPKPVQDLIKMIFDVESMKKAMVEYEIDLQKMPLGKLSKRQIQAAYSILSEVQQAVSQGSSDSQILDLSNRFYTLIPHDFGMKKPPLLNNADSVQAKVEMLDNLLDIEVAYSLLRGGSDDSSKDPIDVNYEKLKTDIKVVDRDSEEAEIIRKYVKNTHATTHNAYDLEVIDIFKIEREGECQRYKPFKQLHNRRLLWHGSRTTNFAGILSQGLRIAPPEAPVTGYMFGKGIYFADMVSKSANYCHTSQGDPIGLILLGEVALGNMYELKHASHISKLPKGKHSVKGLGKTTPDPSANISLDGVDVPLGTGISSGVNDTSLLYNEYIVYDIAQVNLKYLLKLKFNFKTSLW

IC50	SMILES
1 to 500 nM	O=c1[nH]c(C2=C[C@H](N3CCN(c4ccc(Cl)cn4)CC3)CC2)nc2c1CC1(CC2)CC1 [Compound 57, (R)-2′-(3-(4-(5-chloropyridin-2-yl)piperazin-1-yl)cyclopent-1-en-1-yl)-7′,8′-dihydro-3′H-spiro[cyclopropane-1,6′-quinazolin]-4′(5′H)-one]
1 to 500 nM	O=c1[nH]c(C2=C[C@H](N3CCN(c4ccc(F)cn4)CC3)CC2)nc2c1CC1(CC2)CC1 [Compound 58, (R)-2′-(3-(4-(5-fluoropyridin-2-yl)piperazin-1-yl)cyclopent-1-en-1-yl)-7′,8′-dihydro-3′H-spiro[cyclopropane-1,6′-quinazolin]-4′(5′H)-one]
5000 to 500000 nM	O=c1[nH]c(C2=C[C@H](N3CCN(c4ccc(Cl)c(Cl)c4)CC3)CC2)nc2c1CC1(CC2)CC1 [Compound 59, (R)-2′-(3-(4-(3,4-dichlorophenyl)piperazin-1-yl)cyclopent-1-en-1-yl)-7′,8′-dihydro-3′H-spiro[cyclopropane-1,6′-quinazolin]-4′(5′H)-one]
501 to 5000 nM	O=c1[nH]c(C2=C[C@H](N3CCN(c4cccc(Cl)c4)CC3)CC2)nc2c1CC1(CC2)CC1 [Compound 60, (R)-2′-(3-(4-(3-chlorophenyl)piperazin-1-yl)cyclopent-1-en-1-yl)-7′,8′-dihydro-3′H-spiro[cyclopropane-1,6′-quinazolin]-4′(5′H)-one]
1 to 500 nM	O=c1[nH]c(C2=C[C@H](N3CCN(c4ccc(F)cc4F)CC3)CC2)nc2c1CC1(CC2)CC1 [Compound 61, (R)-2′-(3-(4-(2,4-difluorophenyl)piperazin-1-yl)cyclopent-1-en-1-yl)-7′,8′-dihydro-3′H-spiro[cyclopropane-1,6′-quinazolin]-4′(5′H)-one]
1 to 500 nM	O=c1[nH]c(C2=C[C@H](N3CCN(c4ccc(F)c(F)c4)CC3)CC2)nc2c1CC1(CC2)CC1 [Compound 62, (R)-2′-(3-(4-(3,4-difluorophenyl)piperazin-1-yl)cyclopent-1-en-1-yl)-7′,8′-dihydro-3′H-spiro[cyclopropane-1,6′-quinazolin]-4′(5′H)-one]
1 to 500 nM	O=c1[nH]c(C2=C[C@H](N3CCN(c4ccc(Cl)cc4F)CC3)CC2)nc2c1CC1(CC2)CC1 [Compound 63, (R)-2′-(3-(4-(4-chloro-2-fluorophenyl)piperazin-1-yl)cyclopent-1-en-1-yl)-7′,8′-dihydro-3′H-spiro[cyclopropane-1,6′-quinazolin]-4′(5′H)-one]
501 to 5000 nM	O=c1[nH]c(C2=C[C@H](N3CCN(c4ccc(F)c(Cl)c4)CC3)CC2)nc2c1CC1(CC2)CC1 [Compound 64, (R)-2′-(3-(4-(3-chloro-4-fluorophenyl)piperazin-1-yl)cyclopent-1-en-1-yl)-7′,8′-dihydro-3′H-spiro[cyclopropane-1,6′-quinazolin]-4′(5′H)-one]
1 to 500 nM	O=c1[nH]c(C2=C[C@H](N3CCN(c4ccc(Cl)cc4Cl)CC3)CC2)nc2c1CC1(CC2)CC1 [Compound 65, (R)-2′-(3-(4-(2,4-dichlorophenyl)piperazin-1-yl)cyclopent-1-en-1-yl)-7′,8′-dihydro-3′H-spiro[cyclopropane-1,6′-quinazolin]-4′(5′H)-one]
1 to 500 nM	CNC(=O)c1ccc(N2CCN([C@H]3C=C(c4nc5c(c(=O)[nH]4)CC4(CC5)CC4)CC3)CC2)c(F)c1 [Compound 68, (R)-3-fluoro-N-methyl-4-(4-(3-(4′-oxo-4′,5′,7′,8′-tetrahydro-3′H-spiro[cyclopropane-1,6′-quinazolin]-2′-yl)cyclopent-2-en-1-yl)piperazin-1-yl)benzamide]

Second part, the compound before the results:

SMILES	IC50
O=c1[nH]c(C2=C[C@H](N3CC=C(c4ccc(Cl)cc4)CC3)CC2)nc2c1CC1(CC2)CC1 [Compound 46, (R)-2′-(3-(4-(4-chlorophenyl)-5,6-dihydropyridin-1(2H)-yl)cyclopent-1-en-1-yl)-7′,8′-dihydro-3′H-spiro[cyclopropane-1,6′-quinazolin]-4′(5′H)-one]	1 to 500 nM
O=c1[nH]c(C2=C[C@@H](N3CC=C(c4ccc(Cl)cc4)CC3)CC2)nc2c1CC1(CC2)CC1 [Compound 47, (S)-2′-(3-(4-(4-chlorophenyl)-5,6-dihydropyridin-1(2H)-yl)cyclopent-1-en-1-yl)-7′,8′-dihydro-3′H-spiro[cyclopropane-1,6′-quinazolin]-4′(5′H)-one]	1 to 500 nM
O=c1[nH]c(C2=C[C@H](N3CCN(c4ccc(F)cc4)CC3)CC2)nc2c1CCCC21CC1 [Compound 48, (R)-2′-(3-(4-(4-fluorophenyl)piperazin-1-yl)cyclopent-1-en-1-yl)-6′,7′-dihydro-3′H-spiro[cyclopropane-1,8′-quinazolin]-4′(5′H)-one]	1 to 500 nM
O=c1[nH]c(C2=C[C@@H](N3CCN(c4ccc(F)cc4)CC3)CC2)nc2c1CCCC21CC1 [Compound 49, (S)-2′-(3-(4-(4-fluorophenyl)piperazin-1-yl)cyclopent-1-en-1-yl)-6′,7′-dihydro-3′H-spiro[cyclopropane-1,8′-quinazolin]-4′(5′H)-one]	1 to 500 nM
O=c1[nH]c(C2=CC(N3CCN(c4ccc(Br)cc4)CC3)CC2)nc2c1CC1(CC2)CC1 (centres unmarked) [Compound 50, 2′-(3-(4-(4-bromophenyl)piperazin-1-yl)cyclopent-1-en-1-yl)-7′,8′-dihydro-3′H-spiro[cyclopropane-1,6′-quinazolin]-4′(5′H)-one]	1 to 500 nM
O=c1[nH]c(C2=C[C@@H](N3CC=C(c4ccc(F)cc4)CC3)CC2)nc2c1CC1(CC2)CC1 [Compound 51, (S)-2′-(3-(4-(4-fluorophenyl)-5,6-dihydropyridin-1(2H)-yl)cyclopent-1-en-1-yl)-7′,8′-dihydro-3′H-spiro[cyclopropane-1,6′-quinazolin]-4′(5′H)-one]	1 to 500 nM
O=c1[nH]c(C2=C[C@H](N3CC=C(c4ccc(F)cc4)CC3)CC2)nc2c1CC1(CC2)CC1 [Compound 52, (R)-2′-(3-(4-(4-fluorophenyl)-5,6-dihydropyridin-1 (2H)-yl)cyclopent-1-en-1-yl)-7′,8′-dihydro-3′H-spiro[cyclopropane-1,6′-quinazolin]-4′(5′H)-one]	1 to 500 nM
CNC(=O)c1ccc(N2CCN([C@@H]3C=C(c4nc5c(c(=O)[nH]4)CC4(CC5)CC4)CC3)CC2)cc1 [Compound 53, (S)—N-methyl-4-(4-(3-(4′-oxo-4′,5′,7′,8′-tetrahydro-3′H-spiro[cyclopropane-1,6′-quinazolin]-2′-yl)cyclopent-2-en-1-yl)piperazin-1-yl)benzamide]	1 to 500 nM
CNC(=O)c1ccc(N2CCN([C@H]3C=C(c4nc5c(c(=O)[nH]4)CC4(CC5)CC4)CC3)CC2)cc1 [Compound 54, (R)—N-methyl-4-(4-(3-(4′-oxo-4′,5′,7′,8′-tetrahydro-3′H-spiro[cyclopropane-1,6′-quinazolin]-2′-yl)cyclopent-2-en-1-yl)piperazin-1-yl)benzamide]	1 to 500 nM
O=c1[nH]c(C2=C[C@@H](N3CCC(c4ccc(Cl)cc4)CC3)CC2)nc2c1CC1(CC2)CC1 [Compound 55, (S)-2′-(3-(4-(4-chlorophenyl)piperidin-1-yl)cyclopent-1-en-1-yl)-7′,8′-dihydro-3′H-spiro[cyclopropane-1,6′-quinazolin]-4′(5′H)-one]	501 to 5000 nM
O=c1[nH]c(C2=C[C@H](N3CCC(c4ccc(Cl)cc4)CC3)CC2)nc2c1CC1(CC2)CC1 [Compound 56, (R)-2′-(3-(4-(4-chlorophenyl)piperidin-1-yl)cyclopent-1-en-1-yl)-7′,8′-dihydro-3′H-spiro[cyclopropane-1,6′-quinazolin]-4′(5′H)-one]	1 to 500 nM
CC1(C)CN(c2ccc(F)cc2)CCN1[C@H]1C=C(c2nc3c(c(=O)[nH]2)CC2(CC3)CC2)CC1 [Compound 67, (R)-2′-(3-(4-(4-fluorophenyl)-2,2-dimethylpiperazin-1-yl)cyclopent-1-en-1-yl)-7′,8′-dihydro-3′H-spiro[cyclopropane-1,6′-quinazolin]-4′(5′H)-one]	5000 to 500000 nM
CN(C)C(=O)c1ccc(N2CCN([C@H]3C=C(c4nc5c(c(=O)[nH]4)CC4(CC5)CC4)CC3)CC2)cc1 [Compound 69, (R)—N,N-dimethyl-4-(4-(3-(4′-oxo-4′,5′,7′,8′-tetrahydro-3′H-spiro[cyclopropane-1,6′-quinazolin]-2′-yl)cyclopent-2-en-1-yl)piperazin-1-yl)benzamide]	5000 to 500000 nM
CC1(C)CC(c2nc3c(c(=O)[nH]2)CC2(CC3)CC2)=C[C@H]1N1CCN(c2ccc(F)cc2)CC1 [Compound 70, (R)-2′-(3-(4-(4-fluorophenyl)piperazin-1-yl)-4,4-dimethylcyclopent-1-en-1-yl)-7′,8′-dihydro-3′H-spiro[cyclopropane-1,6′-quinazolin]-4′(5′H)-one]	5000 to 500000 nM
CC1(C)CC(c2nc3c(c(=O)[nH]2)CC2(CC3)CC2)=C[C@@H]1N1CCN(c2ccc(F)cc2)CC1 [Compound 71, (S)-2′-(3-(4-(4-fluorophenyl)piperazin-1-yl)-4,4-dimethylcyclopent-1-en-1-yl)-7′,8′-dihydro-3′H-spiro[cyclopropane-1,6′-quinazolin]-4′(5′H)-one]	5000 to 500000 nM
CNC(=O)c1ccc(C2=CCN([C@H]3C=C(c4nc5c(c(=O)[nH]4)CC4(CC5)CC4)CC3)CC2)cc1 [Compound 72, (R)—N-methyl-4-(1-(3-(4′-oxo-4′,5′,7′,8′-tetrahydro-3′H-spiro[cyclopropane-1,6′-quinazolin]-2′-yl)cyclopent-2-en-1-yl)-1,2,3,6-tetrahydropyridin-4-yl)benzamide]	1 to 500 nM
